Where “and” joins values, the source holds several entries; their conditions need not be identical. Identical values can stand only once.
Columns and labels:
PANDI = assay: Example III: postemergence foliar-applied herbicidal mixtures, row crop weeds, PANDI; assay type: in vivo, Panicum dichotomiflorum (fall panicum); settings: 16 DAA; 3.75 gae/ha
Procedure: (§1) The plants were grown for 7-31 days (d) in a greenhouse with an approximate 15 hour (h) photoperiod which was maintained at about 23-29° C. during the day and 22-28° C. during the night.

SCPJU = assay: Example II: in-water applied herbicidal mixtures, transplanted paddy rice, SCPJU; assay type: in vivo, Schoenoplectus juncoides (Japanese bulrush); settings: for Visual Weed Control (%) - 21 DAA SCPJU Obs / Visual Weed Control (%) - 25 DAA SCPJU Obs: in-water application
Summary of the method: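 Rice transplanted (2nd–3rd leaf) into non-perforated mud pots 4 d pre-application; Osmocote 19:6:12 fertiliser. In-water application: pipette injection into aqueous layer, components individually/sequentially. Solvent blank controls; acetone and crop oil concentrate equalised.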

CYPIR = assay: Example II: in-water applied herbicidal mixtures, transplanted paddy rice, CYPIR; assay type: in vivo, Cyperus iria L. (flatsedge; settings: 21 DAA
FIMMI = assay: Example II: in-water applied herbicidal mixtures, transplanted paddy rice, FIMMI; assay type: in vivo, Fimbristylis miliacea (globe fringerush); settings: 22 DAA; 10.6 gae/ha
Procedure: The prepared mud was dispensed in 365 mL aliquots into 16-ounce (oz.) non-perforated plastic pots with a surface area of 86.59 square centimeters (cm^2) leaving a headspace of 3 centimeters (cm) in each pot Mud was allowed to dry overnight prior to planting or transplanting. Rice seeds were planted in Sun Gro MetroMix® 306 planting mixture, which typically has a pH of 6.0 to 6.8 and an organic matter content of about 30 percent, in plastic plug trays. Seedlings at the second or third leaf stage of growth were transplanted into 840 mL of mud contained in 32-oz. non-perforated plastic pots with a surface area of 86.59 cm^2 4 days prior to herbicide application. […] Nutrients were added as Osmocote® (19:6:12, N:P:K^+ minor nutrients) at 2 g per 16-oz. pot and 4 g per 32-oz. pot.
Applications were made by injecting with a pipetter appropriate amounts of the application solutions, individually and sequentially, into the aqueous layer of the paddy. Control plants were treated in the same manner with the solvent blank. Applications were made so that all treated plant material received the same concentrations of acetone and crop oil concentrate.

CYPDI = assay: Example I: postemergence foliar-applied herbicidal mixtures, direct seeded rice, CYPDI; assay type: in vivo, Cyperus difformis (smallflower umbrella sedge)
Procedure: (§6) The soil matrix was contained in plastic pots with a volume of 1 quart and a surface area of 83.6 square centimeters (cm^2). […] The plants were grown for 8-22 days in a greenhouse with an approximate 14 h photoperiod which was maintained at about 29° C. during the day and 26° C. during the night. Nutrients (Peters Excel® 15-5-15 5-Ca 2-Mg and iron chelate) were applied in the irrigation solution as needed and water was added on a regular basis. Supplemental lighting was provided with overhead metal halide 1000-Watt lamps as necessary. The plants were employed for testing when they reached the first through fourth true leaf stage.
(§7) Treatments consisted of the acid or esters of 4-amino-3-chloro-5-fluoro-6-(4-chloro-2-fluoro-3-methoxy-phenyl)pyridine-2-carboxylic acid (Compound A), each formulated as an SC (suspension concentrate), and various herbicidal components alone and in combination. Forms of compound A were applied on an acid equivalent basis.
(§8) For treatments comprised of formulated compounds, measured amounts of compounds were placed individually in 25 mL glass vials and diluted in a volume of 1.25% (v/v) Agri-Dex® crop oil concentrated to obtain 12× stock solutions. […] Application solutions were prepared by adding an appropriate amount of each stock solution (e.g., 1 mL) and diluted to the appropriate final concentrations with the addition of 10 mL of an aqueous mixture of 1.25% (v/v) crop oil concentrate so that the final spray solutions contained 1.25+/−0.05% (v/v) crop oil concentrate.
(§9) All stock solutions and applications solutions were visually inspected for compound compatibility prior to application. Spray solutions were applied to the plant material with an overhead Mandel track sprayer equipped with a 8002E nozzles calibrated to deliver 187 L/ha over an application area of 0.503 m^2 at a spray height of 18 to 20 inches (46 to 50 cm) above average plant canopy height. Control plants were sprayed in the same manner with the solvent blank.
(§10) The treated plants and control plants were placed in a greenhouse as described above and watered by sub-irrigation to prevent wash-off of the test compounds. After approximately 3 weeks, the condition of the test plants as compared with that of the untreated plants was determined visually and scored on a scale of 0 to 100 percent where 0 corresponds to no injury or growth inhibition and 100 corresponds to complete kill.
(§11) Colby's equation was used to determine the herbicidal effects expected from the mixtures (Colby, S. R. 1967. Calculation of the synergistic and antagonistic response of herbicide combinations. Weeds 15:20-22).
(§12) The following equation was used to calculate the expected activity of mixtures containing two active ingredients, A and B: Expected=A+B−(A×B/100) […]

CYPES = assay: Example I: postemergence foliar-applied herbicidal mixtures, direct seeded rice, CYPES; assay type: in vivo, Cyperus esculentus (yellow nutsedge); settings: 4.38 gae/ha
Procedure: as §6, §7, §8, §9, §10, §11, §12

POLCO = assay: Example IV: postemergence foliar-applied herbicidal mixtures, cereal crops, POLCO; assay type: in vivo, Polygonum convolvulus (wild buckwheat); settings: 8.75 gai/ha
Summary of the method: (§2)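 Greenhouse plants were grown 7–36 days in potting mix (pH 6.0–6.8) under ~14 h photoperiod at about 18 °C day/17 °C night. Postemergence foliar sprays (12 mL) contained the second cereal herbicide with experimental compound as two- and three-way mixtures.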

CASOB = assay: Example V: postemergence herbicidal activity of mixtures in forage crops (greenhouse), CASOB; assay type: in vivo, Cassia obtusifolia (sicklepod); settings: alone, foliar, approximately 21 days
Summary of the method: (§3)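 Plants grown from seed or root cuttings in MetroMix 306 (pH 6.0–6.8) for 14–60 days in greenhouse, ~14 h photoperiod, ~28/24 °C day/night. Foliar spray of two-way mixtures of the second herbicide or experimental compounds applied postemergence.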

CENMA = assay: Example V: postemergence herbicidal activity of mixtures in forage crops, CENMA; assay type: in vivo, Centaurea maculosa (spotted knapweed); settings: alone, foliar, approximately 21 days
Summary of the method: as §3

SONAR = assay: Example V: postemergence herbicidal activity of mixtures in forage crops, SONAR; assay type: in vivo, Sonchus arvensis (field sowthistle); settings: alone, foliar, approximately 21 days
Procedure: (§4) Seeds or root cuttings of the desired test plant species were planted in Sun Gro MetroMix® 306 planting mixture, which typically has a pH of 6.0 to 6.8 and an organic matter content of about 30 percent, in plastic pots with a surface area of 126.6 square centimeters (cm^2). […] The plants were grown for 14-60 days in a greenhouse with an approximate 14 hour photoperiod which was maintained at approximately 28° C. during the day and 24° C. during the night.
(§5) Spray solutions of the second herbicide or experimental compound mixtures were prepared by adding the stock solutions to the appropriate amount of dilution solution to form 12 mL spray solution with active ingredients in two-way combinations.

ELEIN = assay: Example III: postemergence foliar-applied herbicidal mixtures, weeds common to row crops such as corn and soybeans (greenhouse), ELEIN; assay type: in vivo, Eleusine indica (goosegrass)
Procedure: as §1

CIRAR [1] = assay: Example V: postemergence herbicidal activity of mixtures in forage crops, CIRAR; assay type: in vivo, Cirsium arvense (Canada thistle); settings: alone, foliar, approximately 21 days
Procedure: as §4, §5

SIDSP = assay: Example V: postemergence herbicidal activity of mixtures in forage crops, SIDSP; assay type: in vivo, Sida spinosa (prickly sida); settings: alone, foliar, approximately 21 days
Procedure: as §4, §5

TRFRE = assay: Example V: postemergence herbicidal activity of mixtures in forage crops, TRFRE; assay type: in vivo, Trifolium repens (white clover); settings: alone, foliar, approximately 21 days
Procedure: as §4, §5

AMARE = assay: Example IV: postemergence foliar-applied herbicidal mixtures, weed control in cereal crops in the greenhouse, AMARE; assay type: in vivo, Amaranthus retroflexus (redroot pigweed); settings: alone, 8.75 gai/ha, 20-22 days
Summary of the method: as §2

CIRAR [2] = assay: Example IV: postemergence foliar-applied herbicidal mixtures, cereal crops, CIRAR; assay type: in vivo, Cirsium arvense (Canada thistle); settings: alone, 8.75 gai/ha, 20-22 days
Procedure: Seeds of the desired test plant species were planted in Sun Gro MetroMix 306 planting mixture, which typically has a pH of 6.0 to 6.8 and an organic matter content of about 30 percent, in plastic pots with a surface area of 103.2 square centimeters (cm^2). […] The plants were grown for 7-36 days in a greenhouse with an approximate 14 hour photoperiod which was maintained at about 18° C. during the day and 17° C. during the night.
Spray solutions of the second cereal herbicide and experimental compound mixtures were prepared by adding the stock solutions to the appropriate amount of dilution solution to form 12 mL spray solution with active ingredients in two- and three-way combinations.

PANMI = assay: Example III: postemergence foliar-applied herbicidal mixtures, row crop weeds, PANMI; assay type: in vivo, Panicum miliaceum (wild-proso millet); settings: 16 DAA
Procedure: as §1

SORHA = assay: Example III: postemergence foliar-applied herbicidal mixtures, row crop weeds, SORHA; assay type: in vivo, Sorghum halepense (johnsongrass); settings: 13 DAA
Procedure: as §1

ISCRU = assay: Example I: postemergence foliar-applied herbicidal mixtures, direct seeded rice, ISCRU; assay type: in vivo, Ischaemum rugosum (saramollagrass)
Procedure: as §6, §7, §8, §9, §10, §11
The following equation was used to calculate the expected activity of mixtures containing two active ingredients, A and B: Expected=A+B−(A×B/100)
A=observed efficacy of active ingredient A at the same concentration as used in the mixture.
B=observed efficacy of active ingredient B at the same concentration as used in the mixture.

VIOTR = assay: Example IV: postemergence foliar-applied herbicidal mixtures, cereal crops, VIOTR; assay type: in vivo, Viola tricolor (wild pansy); settings: 8.75 gai/ha
Summary of the method: as §2

SMILES: COc1c(Cl)ccc(-c2nc(C(=O)O)c(Cl)c(N)c2F)c1F [Compound A Acid, 4-amino-3-chloro-6-(4-chloro-2-fluoro-3-methoxyphenyl)-5-fluoropyridine-2-carboxylic acid]
- Visual Weed Control (%) Obs (PANDI): 60%
- Visual Weed Control (%) - 21 DAA SCPJU Obs (SCPJU; 8.75 gae/ha): 15%
- Visual Weed Control (%) - 25 DAA SCPJU Obs (SCPJU; 8.75 gae/ha): 65%
- Visual Weed Control (%) - 21 DAA SCPJU Obs (SCPJU; 17.5 gae/ha): 80%
- Visual Weed Control (%) - 25 DAA SCPJU Obs (SCPJU; 17.5 gae/ha): 80%
- Visual Weed Control (%) Obs (SCPJU; 22 DAA, 10.6 gae/ha): 60%
- Visual Weed Control (%) Obs (SCPJU; 25 DAA, 8.75 gae/ha): 65%
- Visual Weed Control (%) Obs (SCPJU; 25 DAA, 17.5 gae/ha): 80%
- Visual Weed Control (%) Obs (SCPJU; 25 DAA, 35 gae/ha): 95%
- Visual Weed Control (%) - 25 DAA SCPJU Obs (SCPJU; 35 gae/ha): 95%
- Visual Weed Control (%) Obs (CYPIR; 8.75 gae/ha): 0%
- Visual Weed Control (%) Obs (CYPIR; 17.5 gae/ha): 0%
- Visual Weed Control (%) Obs (CYPIR; 35 gae/ha): 95%
- Visual Weed Control (%) Obs (FIMMI): 40%
- Visual Weed Control (%) - 21 DAA CYPDI Obs (CYPDI; 4.38 gae/ha): 50%
- Visual Weed Control (%) - 21 DAA CYPDI Obs (CYPDI; 8.75 gae/ha): 85%
- Visual Weed Control (%) - 21 DAA CYPES Obs (CYPES): 18%

SMILES: COc1c(Cl)ccc(-c2nc(C(=O)OCc3ccccc3)c(Cl)c(N)c2F)c1F [Compound A Benzyl Ester, benzyl ester of 4-amino-3-chloro-5-fluoro-6-(4-chloro-2-fluoro-3-methoxy-phenyl)pyridine-2-carboxylic acid]
- Weed Control Ob (POLCO; after 20-22 days): 50%
- POLCO Ob (observed value) (POLCO; alone, foliar, 20-22 days): 50%
- CASOB Obs (observed value) (CASOB; 1.1 gae/ha): 28%
- CASOB Obs (observed value) (CASOB; 2.2 gae/ha): 33%
- CASOB Obs (observed value) (CASOB; 4.4 gae/ha): 38%
- CENMA Obs (observed value) (CENMA; 4.4 gae/ha): 70%
- CENMA Obs (observed value) (CENMA; 8.8 gae/ha): 85%
- CENMA Obs (observed value) (CENMA; 17.5 gae/ha): 95%
- SONAR Obs (observed value) (SONAR; 4.4 gae/ha): 65%
- SONAR Obs (observed value) (SONAR; 8.8 gae/ha): 100%
- SONAR Obs (observed value) (SONAR; 17.5 gae/ha): 95%
- Visual Weed Control (%) Obs (ELEIN; 14 DAA, 3.75 gae/ha): 0%
- Visual Weed Control (%) Obs (ELEIN; 17 DAA, 7.5 gae/ha): 20%
- CIRAR Obs (observed value) (CIRAR [1]; 2.2 gae/ha): 25%
- CIRAR Obs (observed value) (CIRAR [1]; 4.4 gae/ha): 30% and 25%
- CIRAR Obs (observed value) (CIRAR [1]; 8.8 gae/ha): 30%
- CIRAR Obs (observed value) (CIRAR [1]; 17.5 gae/ha): 30%
- SIDSP Obs (observed value) (SIDSP; 1.1 gae/ha): 72%
- SIDSP Obs (observed value) (SIDSP; 2.2 gae/ha): 77%
- SIDSP Obs (observed value) (SIDSP; 4.4 gae/ha): 85%
- TRFRE Obs (observed value) (TRFRE; 4.4 gae/ha): 0%
- TRFRE Obs (observed value) (TRFRE; 8.8 gae/ha): 10%
- TRFRE Obs (observed value) (TRFRE; 17.5 gae/ha): 30%
- AMARE Ob (observed value) (AMARE): 60%
- CIRAR Ob (observed value) (CIRAR [2]): 70%
- Visual Weed Control (%) Obs (PANMI; 3.75 gae/ha): 15%
- Visual Weed Control (%) Obs (PANMI; 7.5 gae/ha): 50%
- Visual Weed Control (%) Obs (PANMI; 15 gae/ha): 75%
- Visual Weed Control (%) Obs (SORHA; 3.75 gae/ha): 0%
- Visual Weed Control (%) Obs (SORHA; 7.5 gae/ha): 0%
- Visual Weed Control (%) Obs (SORHA; 15 gae/ha): 10%
- Visual Weed Control (%) - 21 DAA ISCRU Obs (ISCRU; 8 gae/ha): 20%
- Visual Weed Control (%) - 21 DAA ISCRU Obs (ISCRU; 16 gae/ha): 0%
- Weed Control Ob (VIOTR; after 20-22 days): 30%
- VIOTR Ob (observed value) (VIOTR; alone, foliar, 20-22 days): 30%
